This passage reports IC50 and Kd results from patent US8101648B2, “Hydroxybenzamide derivatives and their use as inhibitors of HSP90” (Astex Therapeutics, Ltd., priority 2005, dated 2012).

The subject of one assay is HCT116 cell line. As to the kind of experiment: Anti-proliferative activity, Alamar Blue assay. Type of assay: cell-based, human. Here is the method:
The anti-proliferative activities of compounds of the invention can be determined by measuring the ability of the compounds to inhibition of cell growth in a number of cell lines such as the human colon cancer cell line HCT116. […] The method is based on the ability of viable cells to reduce resazurin to its fluorescent product resorufin. […] The number of viable cells is determined by Alamar Blue assay as before. Cell lines can be obtained from the ECACC (European Collection of cell Cultures).

Assay [1] addresses T1, human Hsp90α N-terminal domain (Homo sapiens, UniProt P07900).
T1 construct: Cloning, expression, and purification of the Human Hsp90α N-terminal domain were performed according to published methods; made in house
Nature of the assay: Isothermal titration calorimetry (ITC) binding. The following applies: 25 mM Tris, 100 mM NaCl, 1 mM MgCl2, 1 mM TCEP, 5% DMSO, pH 7.4. Here is the method:
The ability of the compounds of the invention to bind to human Hsp90 proteins was determined using isothermal titration calorimetry.
Isothermal titration calorimetry (ITC) experiments were performed with a VP-ITC titration calorimeter (Microcal Inc., Northampton, Mass., USA). […] All solutions were filtered and degassed prior to a titration being carried out. The enthalpy change resulting from each injection of ligand was obtained through integration of the calorimetric signal. Data were analysed using Origin 7.0 (Microcal Software Inc., Northampton, Mass.). Heats of dilution were estimated using the final injections of each individual titration and subtracted before data fitting. Different ITC experimental formats were employed in order to obtain compound dissociation constants (Kd's) over a wide range of affinities. […] In this type of experiment the stoichiometry parameter (N) was locked at 1 for data fitting. […] For the majority of these experiments the protein concentration in the calorimetric cell was in the range […] and the ligand concentration in the injection syringe ranged from […].

Where [2] appears, read: HCT-116, human colon cancer cell line HCT116, 72 hours with compound, read-out: IC50.

pIC50, pKd: −log10 of the molar value. Where a name gives a salt, the structure may show the parent alone. Read-outs that look alike come from different tables or passages of the source.

Turning to `CC(C)c1cc(C(=O)N2Cc3ccccc3C2)c(O)cc1O` [Example 5], the negative-log IC50 (pIC50) in the assay on HCT116 cell line (Homo sapiens, HCT-116, 72 h) is greater than 6.00.
Turning to `CC(C)c1cc(C(=O)N2Cc3ccccc3C2)ccc1O` [Example 10, (1,3-Dihydro-isoindol-2-yl)-(4-hydroxy-3-isopropyl-phenyl)-methanone], the pKd in assay [1] was greater than 7.00.
In assay [1], `CC(C)(C)c1cc(C(=O)N2CCc3ccccc3C2)ccc1O` [Example 11, (3-tert-Butyl-4-hydroxy-phenyl)-(3,4-dihydro-1H-isoquinolin-2-yl)-methanone] showed a negative-log Kd (pKd) greater than 6.00.
As for `O=C(c1cc(Br)c(O)cc1O)N1Cc2ccccc2C1` [Example 19, (5-Bromo-2,4-dihydroxy-phenyl)-(1,3-dihydro-isoindol-2-yl)-methanone], the negative-log IC50 (pIC50) in the assay on HCT116 cell line (setting [2]) was greater than 6.00.
Regarding `COCCOCCOc1cccc2c1CN(C(=O)c1cc(C(C)C)c(O)cc1O)C2` [Example 21, (2,4-Dihydroxy-5-isopropyl-phenyl)-{4-[2-(2-methoxy-ethoxy)-ethoxy]-1,3-dihydro-isoindol-2-yl}methanone], in the assay with HCT116 cell line (setting [2]), the pIC50 was greater than 6.00. Also, in assay [1], the negative logarithm of the Kd (pKd) is greater than 7.00.
For `COc1cc2c(cc1Cl)CN(C(=O)c1cc(C(C)C)c(O)cc1O)C2` [Example 33, (5-chloro-6-methoxy-1,3-dihydro-iso-indol-2-yl)-(2,4-dihydroxy-5-isopropyl-phenyl)-methanone], in the assay on HCT116 cell line (setting [2]), the negative logarithm of the IC50 (pIC50) is greater than 6.00. Moreover, in assay [1], the pKd was greater than 7.00.
In the case of `CC(C)c1cc(C(=O)N2CC3CC2CO3)c(O)cc1O` (stereo not shown) [Example 37, (2,4-dihydroxy-5-isopropyl-phenyl)-(2-oxa-5-aza-bicyclo[2.2.1]hept-5-yl)-methanone], the pIC50 with HCT116 cell line (setting [2]) was greater than 6.00. The compound further had a negative-log Kd (pKd) in assay [1] greater than 7.00.
Take `CC(C)c1cc(C(=O)N2CCc3ccccc3C2)c(O)cc1O` [Example 38, (3,4-dihydro-1H-isoquinolin-2-yl)-(2,4-dihydroxy-5-isopropyl-phenyl)-methanone]: the pIC50 in the assay on HCT116 cell line (setting [2]) is greater than 6.00. This compound also gave a pKd in assay [1] greater than 7.00.
On the same counts, the results for `CC(C)c1cc(C(=O)N2Cc3ccc(N)cc3C2)c(O)cc1O` [Example 39, (5-amino-1,3-dihydro-isoindol-2-yl)-(2,4-dihydroxy-5-isopropyl-phenyl)-methanone] are greater than 6.00 and greater than 7.00.
In the case of `COc1ccc2c(c1)CN(C(=O)c1cc(C(C)C)c(O)cc1O)C2` [Example 40, (2,4-dihydroxy-5-isopropyl-phenyl)-(5-methoxy-1,3-dihydro-isoindol-2-yl)-methanone], the negative logarithm of the IC50 (pIC50) in the assay on HCT116 cell line (setting [2]) was greater than 6.00. In assay [1], this compound gave a pKd greater than 7.00.
`COC(=O)c1ccc2c(c1)CN(C(=O)c1cc(C(C)C)c(O)cc1O)C2` [Example 43, 2-(2,4-dihydroxy-5-isopropyl-benzoyl)-2,3-dihydro-1H-isoindole-5-carboxylic acid methyl ester]: the negative-log IC50 (pIC50) in the assay with HCT116 cell line (setting [2]) is greater than 6.00. The same compound had a negative-log Kd (pKd) in assay [1] greater than 7.00.
Regarding `CC(C)c1cc(C(=O)N2Cc3ccc(C(=O)O)cc3C2)c(O)cc1O` [Example 44, 2-(2,4-dihydroxy-5-isopropyl-benzoyl)-2,3-dihydro-1H-isoindole-5-carboxylic acid], the pKd in assay [1] was greater than 7.00.
For the compound `CC(C)NCCOc1ccc2c(c1)CN(C(=O)c1cc(C(C)C)c(O)cc1O)C2` [Example 48, (2,4-dihydroxy-5-isopropyl-phenyl)-[5-(2-isopropylamino-ethoxy)-1,3-dihydro-isoindol-2-yl]-methanone], the negative logarithm of the IC50 (pIC50) with HCT116 cell line (setting [2]) was greater than 6.00. For the same compound, the pKd in assay [1] is greater than 7.00.
For `CC(C)c1cc(C(=O)N2Cc3ccc(OCCNC(=O)CN4CCOCC4)cc3C2)c(O)cc1O` [Example 49], in the assay with HCT116 cell line (setting [2]), the negative-log IC50 (pIC50) was greater than 6.00. For the same compound, the pKd in assay [1] was greater than 7.00.
As to `CC(C)c1cc(C(=O)N2Cc3ccc(N4CCC(N5CCN(C)CC5)CC4)cc3C2)c(O)cc1O` [Example 51, (2,4-dihydroxy-5-isopropyl-phenyl)-{5-[4-(4-methyl-piperazin-1-yl)-piperidin-1-yl]-1,3-dihydro-isoindol-2-yl}-methanone], the negative-log IC50 (pIC50) with HCT116 cell line (setting [2]) is greater than 6.00. In assay [1], this compound showed a pKd greater than 7.00.
On to `CC(C)c1cc(C(=O)N2Cc3ccc(-c4ccc(N5CCNCC5)cc4)cc3C2)c(O)cc1O` [Example 52, (2,4-dihydroxy-5-isopropyl-phenyl)-[5-(4-piperazin-1-yl-phenyl)-1,3-dihydro-isoindol-2-yl]-methanone], for which, in the assay with HCT116 cell line (setting [2]), the pIC50 was greater than 6.00. Besides, the pKd in assay [1] was greater than 6.00.
For the compound `CC(C)c1cc(C(=O)N2Cc3ccc(C(=O)N4CCNCC4)cc3C2)c(O)cc1O` [Example 54, (2,4-dihydroxy-5-isopropyl-phenyl)-[5-(piperazine-1-carbonyl)-1,3-dihydro-isoindol-2-yl]-methanone hydrochloride], in the assay with HCT116 cell line (Homo sapiens, HCT-116, 72 h), the negative-log IC50 (pIC50) was greater than 6.00. The same compound showed a pKd in assay [1] greater than 7.00.
On to `CC(C)c1cc(C(=O)N2Cc3ccc(CN4CCN(C)CC4)cc3C2)c(O)cc1O` [Example 55, (2,4-dihydroxy-5-isopropyl-phenyl)-[5-(4-methyl-piperazin-1-ylmethyl)-1,3-dihydro-isoindol-2-yl]-methanone], for which the pIC50 with HCT116 cell line (setting [2]) is greater than 6.00. The pKd in assay [1] is greater than 7.00.
Turning to `CC(C)c1cc(C(=O)N2Cc3ccc(N4CCN(CCO)CC4)cc3C2)c(O)cc1O` [Example 59, (2,4-Dihydroxy-5-isopropyl-phenyl)-{5-[4-(2-hydroxy-ethyl)-piperazin-1-yl]-1,3-dihydro-isoindol-2-yl}-methanone], the negative-log IC50 (pIC50) with HCT116 cell line (setting [2]) is greater than 6.00. The compound further gave a pKd in assay [1] greater than 7.00.
In the case of `CC(C)c1cc(C(=O)N2Cc3ccc(N4CCC(N5CCOCC5)CC4)cc3C2)c(O)cc1O` [Example 60, (2,4-Dihydroxy-5-isopropyl-phenyl)-[5-(4-morpholin-4-yl-piperidin-1-yl)-1,3-dihydro-isoindol-2-yl]-methanone], in the assay with HCT116 cell line (setting [2]), the negative-log IC50 (pIC50) was greater than 6.00. In assay [1], this compound showed a pKd greater than 7.00.
Taken in the same sequence, the figures for `CC(C)c1cc(C(=O)N2Cc3ccc(N4CCN(C(C)C)CC4)cc3C2)c(O)cc1O` [Example 62, (2,4-Dihydroxy-5-isopropyl-phenyl)-[5-(4-isopropyl-piperazin-1-yl)-1,3-dihydro-isoindol-2-yl]-methanone] were greater than 6.00 and greater than 7.00.
On the same counts, the results for `CC(C)c1cc(C(=O)N2Cc3cccc(NC4CCNCC4)c3C2)c(O)cc1O` [Example 67, (2,4-dihydroxy-5-isopropyl-phenyl)-[4-(piperidin-4-ylamino)-1,3-dihydro-isoindol-2-yl]-methanone] are greater than 6.00 and greater than 7.00.
As to `CC(C)c1cc(C(=O)N2Cc3ccc(CN4CCCCC4)cc3C2)c(O)cc1O` [Example 72, (2,4-Dihydroxy-5-isopropyl-phenyl)-(5-piperidin-1-ylmethyl-1,3-dihydro-isoindol-2-yl)-methanone], the negative-log IC50 (pIC50) in the assay with HCT116 cell line (setting [2]) was greater than 6.00. In assay [1], this compound showed a pKd greater than 7.00.
On to `CC(C)c1cc(C(=O)N2Cc3ccc(C4(O)CCNCC4)cc3C2)c(O)cc1O` [Example 73, (2,4-Dihydroxy-5-isopropyl-phenyl)-[5-(4-hydroxypiperidin-4-yl)-1,3-dihydro-isoindol-2-yl]-methanone], for which, in assay [1], the pKd was greater than 7.00.
Regarding `CC(C)c1cc(C(=O)N2Cc3cc(O)c(Cl)cc3C2)c(O)cc1O` [Example 74, (5-chloro-6-hydroxy-1,3-dihydro-isoindol-dihydroxy-5-isopropyl-phenyl)-methanone], in the assay on HCT116 cell line (setting [2]), the pIC50 was greater than 6.00. This compound showed a negative logarithm of the Kd (pKd) in assay [1] greater than 7.00.
For `CN1CCN(c2ccc3c(c2)CN(C(=O)c2cc(Cl)c(O)cc2O)C3)CC1` [Example 75, (5-Chloro-2,4-dihydroxy-phenyl)-[5-(4-methyl-piperazin-1-yl)-1,3-dihydro-isoindol-2-yl]-methanone], in the assay on HCT116 cell line (setting [2]), the pIC50 is greater than 6.00. This compound also showed a negative-log Kd (pKd) in assay [1] greater than 7.00.
